For 16 compounds, IC50 results are on record in BindingDB's records for doi:10.1021/jm960794l (Institute of Cancer Research, 1997).

Broadly, the IC50 is the concentration at which inhibition is half-maximal. Low readings indicate greater potency in that assay, high ones weaker potency in that assay.

Bounds are passed on as bounds.

The experiment is described as follows: Cytotoxicity in T79-A3 (NR-positive) cell lines.
For `NC(=O)c1cc(N2CC2)c([N+](=O)[O-])cc1[N+](=O)[O-]`, the IC50 came out at 0.89 µM.
For `NC(=O)c1cc(N(CCCl)CCCl)c([N+](=O)[O-])cc1[N+](=O)[O-]`, half-maximal inhibition (IC50) was put at 15 µM.
To `NC(=O)c1cc([N+](=O)[O-])cc([N+](=O)[O-])c1N(CCBr)CCBr` [2-[Bis-(2-bromo-ethyl)-amino]-3,5-dinitro-benzamide] belongs 0.19 µM; to `NC(=O)c1cc([N+](=O)[O-])cc([N+](=O)[O-])c1N(CCCl)CCCl` [2-[Bis-(2-chloro-ethyl)-amino]-3,5-dinitro-benzamide], 7.5 µM.
For `O=C(NCC(O)CO)c1cc([N+](=O)[O-])cc([N+](=O)[O-])c1N(CCCl)CCCl` (stereo unspecified) [2-[Bis-(2-chloro-ethyl)-amino]-N-(2,3-dihydroxy-propyl)-3,5-dinitro-benzamide], the IC50 was found to be 13 µM.
`NC(=O)c1cc([N+](=O)[O-])cc([N+](=O)[O-])c1N(CCI)CCI` [2-[Bis-(2-iodo-ethyl)-amino]-3,5-dinitro-benzamide] showed an IC50 of 0.1 µM.
To `O=C(NCC(O)CO)c1cc([N+](=O)[O-])cc([N+](=O)[O-])c1N(CCI)CCI` (stereo unspecified) [2-[Bis-(2-iodo-ethyl)-amino]-N-(2,3-dihydroxy-propyl)-3,5-dinitro-benzamide] belongs 4 µM.
Take `NC(=O)c1c([N+](=O)[O-])ccc(N(CCCl)CCCl)c1[N+](=O)[O-]` [3-[Bis-(2-chloro-ethyl)-amino]-2,6-dinitro-benzamide]: the IC50 was over 1000 µM.
Regarding `CN(C)CCNC(=O)c1c([N+](=O)[O-])ccc(N(CCCl)CCCl)c1[N+](=O)[O-]` [3-[Bis-(2-chloro-ethyl)-amino]-N-(2-dimethylamino-ethyl)-2,6-dinitro-benzamide], inhibition was half-maximal at 895 µM (IC50).
With `NC(=O)c1cc(N(CCBr)CCBr)c([N+](=O)[O-])cc1[N+](=O)[O-]` [5-(bis(2-bromoethyl)amino)-2,4-dinitrobenzamide], half-maximal inhibition (IC50) was put at 0.25 µM.
For `NC(=O)c1cc(N(CCI)CCI)c([N+](=O)[O-])cc1[N+](=O)[O-]` [5-(bis(2-iodoethyl)amino)-2,4-dinitrobenzamide] the value was 0.23 µM; for `O=C(NCC(O)CO)c1cc(N(CCI)CCI)c([N+](=O)[O-])cc1[N+](=O)[O-]` (stereo unspecified) [5-(bis(2-iodoethyl)amino)-N-(2,3-dihydroxypropyl)-2,4-dinitrobenzamide], 1.9 µM; for `CS(=O)(=O)CCN(CCCl)c1cc(C(N)=O)c([N+](=O)[O-])cc1[N+](=O)[O-]` [5-[(2-Chloro-ethyl)-(2-methanesulfonyl-ethyl)-amino]-2,4-dinitro-benzamide], 3.4 µM.
For `CS(=O)(=O)c1cc([N+](=O)[O-])c(C(N)=O)cc1N(CCCl)CCCl` [5-[Bis-(2-chloro-ethyl)-amino]-4-methanesulfonyl-2-nitro-benzamide] the value was 58 µM; for `O=C(NCC(O)CO)c1cc(N(CCCl)CCCl)c([N+](=O)[O-])cc1[N+](=O)[O-]` (stereo unspecified) [5-[Bis-(2-chloro-ethyl)-amino]-N-(2,3-dihydroxy-propyl)-2,4-dinitro-benzamide], 89 µM.
With `CS(=O)(=O)CCN(CCS(C)(=O)=O)c1cc(C(N)=O)c([N+](=O)[O-])cc1[N+](=O)[O-]` [5-[Bis-(2-methanesulfonyl-ethyl)-amino]-2,4-dinitro-benzamide], 9.3 µM corresponded to half-maximal inhibition (IC50).
